≈ marks a conversion by molar mass, not a printed value.
Tests used:
U-937 = test: Cytotoxicity against human U937 cells after 72 hrs by MTT assay; type: functional; conditions: U-937, 72 h, read-out: LC50 (the source's name)
Plasmodium falciparum = test: Antimalarial activity against chloroquine-sensitive Plasmodium falciparum 3D7 incubated for 48 hrs by malstat reagent based LDH release assay; type: functional, organism-based; conditions: 3D7, 48 h
Trypanosoma cruzi = test: Antitrypanosomal activity against Trypanosoma cruzi Tulahuen amastigote forms infected in human U937 cells after 72 hrs by beta-galactosidase reporter gene assay; type: functional, organism-based; conditions: U-937, 72 h
Leishmania panamensis = test: Antileishmanial activity against EpiR/GFP fused Leishmania panamensis MHOM/CO/87/UA140 intracellular amastigotes infected in human […] cells after 72 hrs by flow cytometric method; type: functional, organism-based; conditions: MHOM/CO/87/UA140, 72 h

## C[C@@H]1[C@H](O)[C@@H](C)/C=C/C=C/C=C/C=C/C=C/C=C/C=C/[C@H](O[C@@H]2O[C@H](C)[C@@H](O)[C@H](N)[C@@H]2O)C[C@@H]2O[C@](O)(C[C@@H](O)C[C@@H](O)[C@H](O)CC[C@@H](O)C[C@@H](O)CC(=O)O[C@H]1C)C[C@H](O)[C@H]2C(=O)O [AMPHOTERICIN B]
U-937
  CC50: 36 µg/mL (≈ 39 µM)

## O=C(Cn1ccnc1[N+](=O)[O-])NCc1ccccc1 [BENZNIDAZOLE]
U-937
  CC50: 180 µg/mL (≈ 692 µM)

## O=C1NCC(c2cc3cc(Cl)ccc3[nH]c2=O)Nc2ccccc21 (configuration not stated)
Plasmodium falciparum
  EC50: 43.2 µg/mL (≈ 127 µM)
Trypanosoma cruzi
  EC50: 123 µg/mL (≈ 361 µM)
U-937
  CC50: 192 µg/mL (≈ 566 µM)
Leishmania panamensis
  EC50: 19.4 µg/mL (≈ 57.2 µM)

## O=C1NCC(c2cc3cc(Br)ccc3[nH]c2=O)Nc2ccccc21 (configuration not stated)
Plasmodium falciparum
  EC50: 13.6 µg/mL (≈ 35.4 µM)
U-937
  CC50: 57 µg/mL (≈ 148 µM)
Leishmania panamensis
  EC50: 15.3 µg/mL (≈ 39.7 µM)

## CCCCOc1nc2ccc(Br)cc2cc1C1CNC(=O)c2ccccc2N1 (configuration not stated)
Plasmodium falciparum
  EC50: 50.8 µg/mL (≈ 115 µM)
U-937
  CC50: > 200 µg/mL
Leishmania panamensis
  EC50: 34.2 µg/mL (≈ 77.6 µM)
